Measurements reported in patent publication US12642886B2, “POSS viscoelastic hemostatic agents” (Hybrid Plastics, Incorporated, priority 2019, dated 2026).

Test: Viscometric properties (oscillatory rheology, shear sweep)
Format: physicochemical
Experimental: The molecular weight of trisilanol i-octyl POSS® at 1184 g/mol, is generally equivalent to that of common silicone oligomers. In comparison to telechelic silanol polydimethylsiloxanes, trisilanol i-octylPOSS is unique in terms of its high viscosity (27 Pa·s at 24° C.) relative to the 4.3 wt % of silanol it contains. Telechelic silanol polydimethylsiloxanes and diphenyl-siloxane-dimethyl-siloxane copolymers with equivalent silanol contents are generally low viscosity fluids
Oscillatory rheology was utilized to determine the viscometric characteristics of i-octylPOSS trisilanol versus mixtures containing solid hemostatic agents suspended in the carrier fluid, i-octylPOSS trisilanol. The solid hemostatic agents utilized for these tests were chitin and kaolin. Shear sweep measurements of viscosity at 37° C. over the range of 0.01-100 s^−1 were deemed adequate to assess reproducibility of the hemostat agent mixtures.
It is non-Newtonian attributes are evidenced by a reduction of viscosity relative to shear rate. The shear thinning behavior is useful as it enables the hemostat to be syringable or pourable yet to remain in place once deposited onto a wound. Desirably, the viscosity of this hemostat can be controlled simply by increasing or decreasing the amount of kaolin incorporation.
A similar viscosity test was performed using chitin as the solid hemostatic additive.

trisilanol hepta-isoOctyl POSS [i-octylPOSS trisilanol]
viscosity (at 24° C.): 27 Pa·s
rheological behaviour (viscosity relative to shear rate) (shear sweep 0.01-100 s^−1 at 37° C.): Newtonian fluid
